Experiments:
[1] = test system: common ragweed; assay: Test C pre-/postemergence herbicide test; format: in vivo, Ambrosia elatior; parameters: key to Plant response rating, Ragweed: 0 = no effect, 100 = complete control; details: for Plant response rating, Ragweed: preemergence
Summary of the method: (§1)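 Visual ratings on a 0–100 scale (100 = complete control) made versus untreated controls after 12 to 14 greenhouse days. Test chemicals, formulated in surfactant-containing non-phytotoxic solvent, applied preemergence to planted seeds or postemergence to 1- to 4-leaf plants (2 to 18 cm).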

[2] = test system: corn; assay: Test C pre-/postemergence herbicide test; format: in vivo, Zea mays; details: for Plant response rating, Corn: preemergence
Summary of the method: as §1

[3] = test system: ducksalad; assay: Test C flooded paddy test; format: in vivo, Heteranthera limosa; details: for Plant response rating, Ducksalad: 500 g ai/ha, visual rating after 12 to 14 days
[4] = test system: cocklebur; assay: Test C pre-/postemergence herbicide test; format: in vivo, Xanthium strumarium; details: for Plant response rating, Cocklebur: preemergence; for Cocklebur plant response rating: Preemergence, 500 g ai/ha, scale 0 to 100, 0 no effect, 100 complete control
Summary of the method: as §1

[5] = test system: eastern black nightshade; assay: Test C pre-/postemergence herbicide test; format: in vivo, Solanum ptycanthum; details: for Plant response rating, Nightshade: preemergence
Summary of the method: as §1

[6] = test system: barnyardgrass; assay: Test C flooded paddy test; format: in vivo, Echinochloa crus-galli; details: for Plant response rating, Barnyardgrass: 500 g ai/ha, visual rating after 12 to 14 days
Summary of the method: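 After a postemergence application at 1 to 4 leaves (plants 2–18 cm high), or at 2 leaves for barnyardgrass in flooded paddy, plants stayed in the greenhouse for 12 to 14 days. Damage was then judged visually relative to control plants, with 100 indicating complete control.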

[7] = test system: yellow nutsedge; assay: Test C pre-/postemergence herbicide test; format: in vivo, Cyperus esculentus; details: for Plant response rating, Nutsedge, Yellow: preemergence
Summary of the method: as §1

[8] = test system: velvetleaf; assay: Test C pre-/postemergence herbicide test; format: in vivo, Abutilon theophrasti; details: for Plant response rating, Velvetleaf: preemergence
Summary of the method: as §1

[9] = test system: large crabgrass; assay: Test C pre-/postemergence herbicide test; format: in vivo, Digitaria sanguinalis; details: for Plant response rating, Crabgrass, Large: preemergence
Summary of the method: as §1

[10] = test system: rice; assay: Test C flooded paddy test; format: in vivo, Oryza sativa; details: for Plant response rating, Rice: 500 g ai/ha, visual rating after 12 to 14 days
Summary of the method: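 Injury scored visually against controls on a 0 (no effect) to 100 (complete control) scale, 12 to 14 days after treatment in greenhouse. Flooded paddy plants treated at 2-leaf stage; postemergence plants at 1- to 4-leaf stage, 2 to 18 cm tall.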

[11] = 125 g ai/ha, scale 0 (no effect) to 100 (complete control), visual, 12 to 14 days
[12] = Preemergence, 500 g ai/ha, scale 0 to 100, 0 no effect, 100 complete control
[13] = 250 g ai/ha, scale 0 to 100 (0 no effect, 100 complete control), visual, 12 to 14 days
[14] = 62 g ai/ha, scale 0 to 100 (0 no effect, 100 complete control)
[15] = 125 g ai/ha, scale 0 to 100 (0 no effect, 100 complete control)
[16] = 250 g ai/ha, scale of 0 to 100, 0 is no effect, 100 is complete control
[17] = scale 0 to 100 (0 no effect, 100 complete control)
[18] = 500 g ai/ha, scale 0 to 100 (0 no effect, 100 complete control), visual, 12 to 14 days

SMILES	Plant response rating, Ragweed ([1]; 62 g ai/ha, scale 0 to 100)	Plant response rating, Corn ([2]; 62 g ai/ha, scale 0 to 100)	Plant response rating, Corn [2, 11]	Ducksalad plant response rating [3, 14]	Ducksalad plant response rating [3, 15]	Ducksalad plant response rating [3, 16]	Plant response rating, Ducksalad [3, 17]	Plant response rating, Cocklebur [4, 11]	Cocklebur plant response rating [4]	Plant response rating, Nightshade ([5]; 62 g ai/ha, scale 0 to 100)	Plant response rating, Nightshade [5, 11]	Barnyardgrass plant response rating [6, 14]	Barnyardgrass plant response rating [6, 16]	Plant response rating, Barnyardgrass [6, 17]	Plant response rating, Nutsedge, Yellow ([7]; 62 g ai/ha, scale 0 to 100)	Plant response rating, Nutsedge, Yellow [7, 11]	Plant response rating, Velvetleaf ([8]; 62 g ai/ha, scale 0 to 100)	Plant response rating, Crabgrass, Large ([9]; 62 g ai/ha, scale 0 to 100)	Plant response rating, Crabgrass, Large [9, 11]	Rice plant response rating [10, 14]	other results
CCNC(=O)c1ccnc(NC(=O)c2cc(C(C)(C)C)nn2CC)c1 [Compound 152]	85	40	45	85	85	85	85	65	100	80	90	40	75	85	10	30	0	100	100	50	Plant response rating, Ragweed [1, 11]: 85; Ragweed plant response rating [1, 12]: 100; Plant response rating, Corn [2, 13]: 50; Corn plant response rating [2, 12]: 70; Plant response rating, Cocklebur [4, 13]: 65; Nightshade plant response rating [5, 12]: 100; Barnyardgrass plant response rating ([6]; 125 g ai/ha, scale of 0 to 100, 0 is no effect, 100 is complete control): 75; Nutsedge, Yellow plant response rating [7, 12]: 70; Plant response rating, Velvetleaf [8, 11]: 100; Velvetleaf plant response rating [8, 12]: 100; Plant response rating, Crabgrass, Large [9, 13]: 100; Crabgrass, Large plant response rating [9, 12]: 100; Rice plant response rating [10, 15]: 75; Rice plant response rating [10, 16]: 75; Plant response rating, Rice [10, 17]: 80
CCn1nc(C(C)(C)C)cc1C(=O)Nc1cc(C(=O)N2CCCC2)ccc1F [Compound 242]	95	0	0	65	95	95	95	0	50	100	100	15	90	95	0	0	100	100	100	50	Plant response rating, Ragweed ([1]; 250 g ai/ha, scale 0-100): 100; Plant response rating, Ragweed [1, 18]: 100; Plant response rating, Corn ([2]; 250 g ai/ha, scale 0-100): 20; Plant response rating, Corn [2, 18]: 25; Plant response rating, Cocklebur ([4]; 62 g ai/ha, scale 0 to 100): 0; Plant response rating, Cocklebur ([4]; 250 g ai/ha, scale 0-100): 35; Plant response rating, Nightshade ([5]; 250 g ai/ha, scale 0-100): 100; Plant response rating, Nightshade [5, 18]: 100; Barnyardgrass plant response rating [6, 15]: 75; Plant response rating, Nutsedge, Yellow ([7]; 250 g ai/ha, scale 0-100): 15; Plant response rating, Nutsedge, Yellow [7, 18]: 25; Plant response rating, Velvetleaf ([8]; 250 g ai/ha, scale 0-100): 100; Plant response rating, Velvetleaf [8, 18]: 100; Plant response rating, Crabgrass, Large ([9]; 250 g ai/ha, scale 0-100): 100; Plant response rating, Crabgrass, Large [9, 18]: 100; Rice plant response rating [10, 15]: 85; Rice plant response rating [10, 16]: 90; Plant response rating, Rice [10, 17]: 90

Source: patent US20060069132A1, “Azolecarboxamide herbicides” (priority 2004, published 2006)
